Measurements from publication PMC9389804 (Journal of Hematology & Oncology, 2022).
Values joined by “and” are separate entries in the source; they are usually repeats but may differ in a detail not shown here. Equal entries are not always repeated.

Test: safety assessments (adverse events, NCI CTCAE)
Conditions: for Treatment-related cardiovascular events: any grade
[1] = median follow-up of nearly 3 years
[2] = nonhematologic TRAE, all 165 patients
[3] = treatment-related CVE G 3/4, Accelerated phase n=38
[4] = treatment-related CVE G 3/4, Chronic phase n=127
[5] = treatment-related CVE G 3/4, Total n=165
[6] = treatment-related CVE any grade, Accelerated phase n=38
[7] = treatment-related CVE any grade, Chronic phase n=127
[8] = treatment-related CVE any grade, Total n=165

Question: What does the source list for `Cc1ccc(C(=O)Nc2ccc(CN3CCN(C)CC3)c(C(F)(F)F)c2)cc1C#Cc1cnc2[nH]ncc2c1` [olverembatinib]?
Answer: Hematologic (TRAE any grades, Total n=165): 138 (83.6) n (%); Hyperbilirubinemia (TRAE any grades, Total n=165): 69 (41.8) n (%); Hyperglycemia (TRAE any grades, Total n=165): 43 (26.1) n (%); Hypertriglyceridemia (TRAE any grades, Total n=165): 95 (57.6) n (%); Hypoalbuminemia (TRAE any grades, Total n=165): 26 (15.8) n (%); Hypocalcemia (TRAE any grades, Total n=165): 64 (38.8) n (%); Hypokalemia (TRAE any grades, Total n=165): 42 (25.5) n (%); Hyponatremia (TRAE any grades, Total n=165): 38 (23.0) n (%); Increased alanine aminotransferase (TRAE any grades, Total n=165): 59 (35.8) n (%); Increased alkaline phosphatase (TRAE any grades, Total n=165): 21 (12.7) n (%); Increased aspartate aminotransferase (TRAE any grades, Total n=165): 59 (35.8) n (%); Increased creatine phosphokinase (TRAE any grades, Total n=165): 48 (29.1) n (%); Increased γ-glutamyl transferase (TRAE any grades, Total n=165): 47 (28.5) n (%); Leukopenia (TRAE any grades, Total n=165): 56 (33.9) n (%); Myalgia (TRAE any grades, Total n=165): 31 (18.8) n (%); Neutropenia (TRAE any grades, Total n=165): 26 (15.8) n (%); Nonhematologic (TRAE any grades, Total n=165): 165 (100.0) n (%); Pain in extremity (TRAE any grades, Total n=165): 21 (12.7) n (%); Proteinuria (TRAE any grades, Total n=165): 84 (50.9) n (%); Pyrexia (TRAE any grades, Total n=165): 30 (18.2) n (%); Rash (TRAE any grades, Total n=165): 27 (16.4) n (%); Sinus tachycardia (TRAE any grades, Total n=165): 30 (18.2) n (%); Skin pigmentation (TRAE any grades, Total n=165): 139 (84.2%) n (%) and 139 (84.2) n (%); Thrombocytopenia (TRAE any grades, Total n=165): 126 (76.4) n (%); Treatment-related adverse events (TRAE any grades, Total n=165): 165 (100.0) n (%); Adverse events resulting in dose interruption (Total n=165): 86 (52.1%) n (%) and 86 (52.1) n (%); Adverse events resulting in dose reduction (Total n=165): 50 (30.3%) n (%) and 50 (30.3) n (%); Adverse events resulting in treatment discontinuation (Total n=165): 13 (7.9) n (%); severe thrombocytopenia leading to dose reduction (all 165 patients): 15.8%; Treatment-related cardiovascular events (Accelerated phase n=38): 9 (23.7) n (%); Treatment-related cardiovascular events (Chronic phase n=127): 44 (34.6) n (%); Treatment-related cardiovascular events (Total n=165): 53 (32.1%) n (%) and 53 (32.1) n (%); median time to temporary treatment suspension or dose reduction (for SAEs): 5 months; patients requiring temporary treatment suspension or dose reduction (for SAEs): 75 (46.0%) n (%); myelosuppression, median duration (in vivo): 36 (7–718) days; myelosuppression, median onset time (in vivo): 28 (4–676) days; patients in whom CVEs were grade 1 or 2 (in vivo): 88.5%; patients who received platelet transfusions (in vivo): 11.5%; patients who received red blood cell transfusions (in vivo): 9.7%; median duration of treatment interruptions (interruptions due to AEs): 56 days; median number of treatment interruptions (interruptions due to AEs): 2; incidence of arterial occlusive and venous thrombotic events [1]: 5.0%; olverembatinib-related CVEs [1]: 32.0%; median time to onset of nonhematologic TRAEs (most frequent nonhematologic TRAEs): 70 days; Hyperbilirubinemia [2]: 41.8%; Hypertriglyceridemia [2]: 57.6%; Hypocalcemia [2]: 38.8%; Proteinuria [2]: 50.9%; elevated liver transaminases [2]: 35.8%; patients with Fridericia-corrected QT interval exceeding 500 ms on treatment (patients with CVEs): None; renal function according to estimated glomerular filtration rate (patients with persistent proteinuria): did not observe decreased renal function; Anemia (serious AE (SAE)): 6.0%; Atrial fibrillation (serious AE (SAE)): 2.0%; Pneumonia (serious AE (SAE)): 3.0%; Pyrexia (serious AE (SAE)): 2.0%; Thrombocytopenia (serious AE (SAE)): 9.0%; acute MI, cholelithiasis, pericardial effusion, upper-respiratory-tract infection, and urinary-tract infection (each) (serious AE (SAE)): 1%; Acute coronary syndrome [3]: 0 n (%); Acute myocardial infarction [3]: 0 n (%); Angina pectoris [3]: 0 n (%); Arrhythmia [3]: 0 n (%); Arteriosclerosis coronary artery [3]: 0 n (%); Atrial fibrillation [3]: 1 (2.6) n (%); Atrial tachycardia [3]: 0 n (%); Cardiomegaly [3]: 0 n (%); Cerebral infarction [3]: 0 n (%); Lacunar infarction [3]: 0 n (%); Palpitations [3]: 0 n (%); Pericardial effusion [3]: 1 (2.6) n (%); Retinal-vein occlusion [3]: 0 n (%); Supraventricular extrasystoles [3]: 0 n (%); Ventricular extrasystoles [3]: 0 n (%); Acute coronary syndrome [4]: 1 (0.8) n (%); Acute myocardial infarction [4]: 1 (0.8) n (%); Angina pectoris [4]: 0 n (%); Arrhythmia [4]: 1 (0.8) n (%); Arteriosclerosis coronary artery [4]: 1 (0.8) n (%); Atrial fibrillation [4]: 1 (0.8) n (%); Atrial tachycardia [4]: 0 n (%); Cardiomegaly [4]: 0 n (%); Cerebral infarction [4]: 1 (0.8) n (%); Lacunar infarction [4]: 1 (0.8) n (%); Palpitations [4]: 0 n (%); Pericardial effusion [4]: 1 (0.8) n (%); Retinal-vein occlusion [4]: 2 (1.6) n (%); Supraventricular extrasystoles [4]: 0 n (%); Ventricular extrasystoles [4]: 0 n (%); Acute coronary syndrome [5]: 1 (0.6) n (%); Acute myocardial infarction [5]: 1 (0.6) n (%); Angina pectoris [5]: 0 n (%); Arrhythmia [5]: 1 (0.6) n (%); Arteriosclerosis coronary artery [5]: 1 (0.6) n (%); Atrial fibrillation [5]: 2 (1.2) n (%); Atrial tachycardia [5]: 0 n (%); Cardiomegaly [5]: 0 n (%); Cerebral infarction [5]: 1 (0.6) n (%); Lacunar infarction [5]: 1 (0.6) n (%); Palpitations [5]: 0 n (%); Pericardial effusion [5]: 2 (1.2) n (%); Retinal-vein occlusion [5]: 2 (1.2) n (%); Supraventricular extrasystoles [5]: 0 n (%); Ventricular extrasystoles [5]: 0 n (%); Acute coronary syndrome [6]: 0 n (%); Acute myocardial infarction [6]: 0 n (%); Angina pectoris [6]: 0 n (%); Arrhythmia [6]: 0 n (%); Arteriosclerosis coronary artery [6]: 0 n (%); Atrial fibrillation [6]: 3 (7.9) n (%); Atrial tachycardia [6]: 0 n (%); Cardiomegaly [6]: 0 n (%); Cerebral infarction [6]: 0 n (%); Lacunar infarction [6]: 0 n (%); Palpitations [6]: 1 (2.6) n (%); Pericardial effusion [6]: 3 (7.9) n (%); Retinal-vein occlusion [6]: 0 n (%); Supraventricular extrasystoles [6]: 2 (5.3) n (%); Ventricular extrasystoles [6]: 0 n (%); Acute coronary syndrome [7]: 1 (0.8) n (%); Acute myocardial infarction [7]: 1 (0.8) n (%); Angina pectoris [7]: 1 (0.8) n (%); Arrhythmia [7]: 1 (0.8) n (%); Arteriosclerosis coronary artery [7]: 1 (0.8) n (%); Atrial fibrillation [7]: 2 (1.6) n (%); Atrial tachycardia [7]: 1 (0.8) n (%); Cardiomegaly [7]: 1 (0.8) n (%); Cerebral infarction [7]: 1 (0.8) n (%); Lacunar infarction [7]: 1 (0.8) n (%); Palpitations [7]: 1 (0.8) n (%); Pericardial effusion [7]: 11 (8.7) n (%); Retinal-vein occlusion [7]: 3 (2.4) n (%); Supraventricular extrasystoles [7]: 3 (2.4) n (%); Ventricular extrasystoles [7]: 7 (5.5) n (%); Acute coronary syndrome [8]: 1 (0.6) n (%); Acute myocardial infarction [8]: 1 (0.6) n (%); Angina pectoris [8]: 1 (0.6) n (%); Arrhythmia [8]: 1 (0.6) n (%); Arteriosclerosis coronary artery [8]: 1 (0.6) n (%); Atrial fibrillation [8]: 5 (3.0) n (%); Atrial tachycardia [8]: 1 (0.6) n (%); Cardiomegaly [8]: 1 (0.6) n (%); Cerebral infarction [8]: 1 (0.6) n (%); Lacunar infarction [8]: 1 (0.6) n (%); Palpitations [8]: 2 (1.2) n (%); Pericardial effusion [8]: 14 (8.5) n (%); Retinal-vein occlusion [8]: 3 (1.8) n (%); Supraventricular extrasystoles [8]: 5 (3.0) n (%); Ventricular extrasystoles [8]: 7 (4.2) n (%)
